Data reported in patent publication US6143492A, “Optical molecular sensors for cytochrome P450 activity” (Aurora Biosciences Corporation, priority 1999, dated 2000).

How the values were obtained:
CYP 3A4 = biological target: T1, CYP 3A4 (Homo sapiens, UniProt P08684); assay: Kinetics of fluorogenic substrates with CYP 3A4; type: biochemical; settings: for conversion to the same fluorescent product vs the most closely structurally-related substrate / kcat / kcat/Km / type of kinetics: CYP 3A4; for v (1.25 uM), turnover rate at 1.25 μM: CYP 3A4, substrate 1.25 uM; for v (10 uM), turnover rate at 10 μM: CYP 3A4, substrate 10 uM
T1 construct: NADPH regenerating system
Source text: Whichever of the four abstractable hydrogen atoms (designated H^1 and H^2 in this representation of BOMR) is removed in the initial reaction step, with reference to Reaction Scheme 1 of FIG. 1, the hydroxylation product will spontaneously decompose to the free resorufin dye. In addition, the benzyloxy group, attached to the carbon carrying the two hydrogens designated H^2, contributes an inductive electronic effect on that carbon, which can stabilize the radical formed during abstraction of one of the H^2 hydrogens by a cytochrome P450.
Optimization of assay conditions was, and is preferably, accomplished through statistically validated Design of Experiments methodologies, using the commercial software package "Design-Expert®" produced by Stat-Ease® Inc. The data shown in FIGS. 4 and 5 were obtained with initial optimization.
For further understanding these terms in the context of this invention, attention is directed to FIG. 4 and the analysis of FIG. 4.

CYP 2B6 = biological target: T2, CYP 2B6 (Homo sapiens, UniProt P20813)
T2 sequence (P20813 1-491): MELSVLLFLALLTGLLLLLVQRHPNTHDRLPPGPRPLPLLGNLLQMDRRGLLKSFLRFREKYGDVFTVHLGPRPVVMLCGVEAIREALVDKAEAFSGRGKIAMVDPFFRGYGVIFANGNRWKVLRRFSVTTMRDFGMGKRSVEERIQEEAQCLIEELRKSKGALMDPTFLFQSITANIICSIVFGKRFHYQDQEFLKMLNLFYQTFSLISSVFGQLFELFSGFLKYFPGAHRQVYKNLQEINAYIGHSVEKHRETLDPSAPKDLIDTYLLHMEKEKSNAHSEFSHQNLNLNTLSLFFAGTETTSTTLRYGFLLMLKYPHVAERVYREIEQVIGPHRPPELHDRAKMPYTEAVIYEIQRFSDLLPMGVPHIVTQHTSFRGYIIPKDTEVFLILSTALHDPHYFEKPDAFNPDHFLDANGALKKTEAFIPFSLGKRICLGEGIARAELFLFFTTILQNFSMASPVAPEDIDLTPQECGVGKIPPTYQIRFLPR

CYP 2C19 = CYP 2C19 (Homo sapiens, UniProt P33261); assay: Kinetics of fluorogenic substrates with CYP 2C19; type: biochemical; settings: for v (1.25 uM), turnover rate at 1.25 μM: CYP 2C19, substrate 1.25 uM; for v (10 uM), turnover rate at 10 μM: CYP 2C19, substrate 10 uM
CYP 2C9 = CYP 2C9 (Homo sapiens, UniProt P11712); assay: Kinetics of fluorogenic substrates with CYP 2C9; type: biochemical; settings: for v (1.25 uM), turnover rate at 1.25 μM: CYP 2C9, substrate 1.25 uM; for v (10 uM), turnover rate at 10 μM: CYP 2C9, substrate 10 uM
CYP 2C9, sequence (P11712 whole entry): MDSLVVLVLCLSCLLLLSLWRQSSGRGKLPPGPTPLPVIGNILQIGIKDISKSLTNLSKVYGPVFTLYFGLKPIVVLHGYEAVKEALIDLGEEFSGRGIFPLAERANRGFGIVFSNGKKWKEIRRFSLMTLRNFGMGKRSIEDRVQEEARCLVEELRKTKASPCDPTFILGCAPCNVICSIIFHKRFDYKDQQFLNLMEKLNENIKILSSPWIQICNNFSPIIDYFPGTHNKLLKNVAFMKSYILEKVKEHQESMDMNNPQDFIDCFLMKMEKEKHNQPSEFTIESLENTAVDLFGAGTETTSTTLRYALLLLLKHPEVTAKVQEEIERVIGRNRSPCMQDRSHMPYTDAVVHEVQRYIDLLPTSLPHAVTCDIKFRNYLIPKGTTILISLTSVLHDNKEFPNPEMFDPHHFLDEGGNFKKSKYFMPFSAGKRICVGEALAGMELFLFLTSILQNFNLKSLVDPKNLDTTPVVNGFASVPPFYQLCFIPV

T1 sequence (P08684 whole entry): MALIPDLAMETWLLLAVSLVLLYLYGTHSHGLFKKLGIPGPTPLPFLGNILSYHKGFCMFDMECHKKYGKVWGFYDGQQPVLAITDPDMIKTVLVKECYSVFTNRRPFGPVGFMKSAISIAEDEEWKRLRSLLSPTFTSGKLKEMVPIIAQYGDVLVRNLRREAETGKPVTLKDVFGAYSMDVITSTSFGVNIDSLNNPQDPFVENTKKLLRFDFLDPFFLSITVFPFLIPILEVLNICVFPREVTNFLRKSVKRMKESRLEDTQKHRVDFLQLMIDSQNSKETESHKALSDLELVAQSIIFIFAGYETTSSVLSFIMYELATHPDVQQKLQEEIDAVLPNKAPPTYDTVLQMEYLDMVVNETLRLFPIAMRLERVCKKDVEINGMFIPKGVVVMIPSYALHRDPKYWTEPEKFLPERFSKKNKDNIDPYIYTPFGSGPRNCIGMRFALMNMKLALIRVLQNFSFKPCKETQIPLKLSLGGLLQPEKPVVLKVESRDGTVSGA
CYP 2C19, sequence (P33261 whole entry): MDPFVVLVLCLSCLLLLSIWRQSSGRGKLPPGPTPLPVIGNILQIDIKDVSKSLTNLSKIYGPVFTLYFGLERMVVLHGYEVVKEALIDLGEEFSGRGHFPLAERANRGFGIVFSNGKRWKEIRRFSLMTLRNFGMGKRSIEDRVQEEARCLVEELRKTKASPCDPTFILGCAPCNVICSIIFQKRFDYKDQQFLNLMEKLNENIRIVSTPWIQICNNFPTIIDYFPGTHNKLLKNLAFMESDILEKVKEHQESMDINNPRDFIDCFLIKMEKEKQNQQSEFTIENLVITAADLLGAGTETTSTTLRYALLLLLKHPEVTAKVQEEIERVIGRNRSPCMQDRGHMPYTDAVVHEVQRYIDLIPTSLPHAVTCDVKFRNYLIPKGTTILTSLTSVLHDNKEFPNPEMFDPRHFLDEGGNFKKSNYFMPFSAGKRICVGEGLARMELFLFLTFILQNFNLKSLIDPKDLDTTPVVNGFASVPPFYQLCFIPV

SMILES	kcat (CYP 3A4) [s⁻¹]	kcat/Km (CYP 3A4) [M⁻¹ s⁻¹]	type of kinetics (CYP 3A4)	v (1.25 uM), turnover rate at 1.25 μM (CYP 3A4) [min⁻¹]	v (10 uM), turnover rate at 10 μM (CYP 3A4) [min⁻¹]	v (1.25 uM), turnover rate at 1.25 μM (CYP 2C19) [min⁻¹]	v (10 uM), turnover rate at 10 μM (CYP 2C19) [min⁻¹]	v (1.25 uM), turnover rate at 1.25 μM (CYP 2C9) [min⁻¹]	v (10 uM), turnover rate at 10 μM (CYP 2C9) [min⁻¹]	kcat (CYP 2C19; CYP 2C19) [s⁻¹]	kcat/Km (CYP 2C19; CYP 2C19) [M⁻¹ s⁻¹]	also measured
O=c1ccc2nc3ccc(OCOCc4ccccc4)cc3oc-2c1 [BOMR, Benzyloxymethylresorufin]	0.0183	13095	Michaelis-	0.55	0.88							conversion to the same fluorescent product vs the most closely structurally-related substrate (CYP 3A4): more efficient conversion; turnover rate (kcat) (CYP 3A4; CYP 3A4, FIG. 4 data): 0.5 s⁻¹; CYP 3A4 turnover rate of BOMR relative to BR (CYP 3A4; FIG. 4 data): approximately five times greater; enzymatic efficiency (kcat /Km) of CYP 3A4 towards BOMR relative to BR (CYP 3A4; FIG. 4 data): 14 times; conversion to the same fluorescent product vs the most closely structurally-related substrate (CYP 2B6): more efficient conversion; kcat (CYP 2B6): 0.013 s⁻¹; kcat/Km (CYP 2B6): 18265 M⁻¹ s⁻¹; type of kinetics (CYP 2B6): Michaelis-; v (1.25 uM), turnover rate at 1.25 μM (CYP 2B6): 0.28 min⁻¹; v (10 uM), turnover rate at 10 μM (CYP 2B6): 0.71 min⁻¹
COc1ccc2cc(C#N)c(=O)oc2c1 [3CMC, 3-cyano-7-methoxycoumarin, reference compound]						0.01	0.07	0.00	0.04			type of kinetics (CYP 2C19; CYP 2C19): linear; kcat (CYP 2C9; CYP 2C9): 0.0067 s⁻¹; kcat/Km (CYP 2C9; CYP 2C9): 85 M⁻¹ s⁻¹; type of kinetics (CYP 2C9; CYP 2C9): linear
O=c1cc(C(F)(F)F)c2ccc(OCc3ccccc3)cc2o1 [BFC, 7-Benzyloxy-4-trifluoromethylcoumarin, reference compound]			linear	0.04	0.81							
O=c1cc(C(F)(F)F)c2ccc(OCOCc3ccccc3)cc2o1 [BOMFC]	0.0667		Michaelis-	0.11	1.41							conversion to the same fluorescent product vs the most closely structurally-related substrate (CYP 3A4): more efficient conversion
CC1(C)C2=C(Cl)C(=O)C(Cl)=CC2=Nc2ccc(OCOCc3ccccc3)cc21 [BOMDDAO]	0.1	14286		0.4402	4.2041							
CCOCOc1ccc2nc3ccc(=O)cc-3oc2c1 [EOMR]	0.0017		Michaelis-	0.03	0.10							conversion to the same fluorescent product vs the most closely structurally-related substrate (CYP 3A4): more efficient conversion

Continued, in another order:

kcat (CYP 3A4) [s⁻¹]	kcat/Km (CYP 3A4) [M⁻¹ s⁻¹]	type of kinetics (CYP 3A4)	v (1.25 uM), turnover rate at 1.25 μM (CYP 3A4) [min⁻¹]	v (10 uM), turnover rate at 10 μM (CYP 3A4) [min⁻¹]	v (1.25 uM), turnover rate at 1.25 μM (CYP 2C19) [min⁻¹]	v (10 uM), turnover rate at 10 μM (CYP 2C19) [min⁻¹]	v (1.25 uM), turnover rate at 1.25 μM (CYP 2C9) [min⁻¹]	v (10 uM), turnover rate at 10 μM (CYP 2C9) [min⁻¹]	kcat (CYP 2C19; CYP 2C19) [s⁻¹]	kcat/Km (CYP 2C19; CYP 2C19) [M⁻¹ s⁻¹]	SMILES	also measured
					0.02	0.06	0.00	0.00	0.0017	234	N#Cc1cc2ccc(OCc3ccccc3)cc2oc1=O [BCC, 7-Benzyloxy-3-cyanocoumarin, reference compound]	type of kinetics (CYP 2C19; CYP 2C19): Michaelis-; kcat (CYP 2B6): 0.0017 s⁻¹; kcat/Km (CYP 2B6): 1064 M⁻¹ s⁻¹; type of kinetics (CYP 2B6): Michaelis-; v (1.25 uM), turnover rate at 1.25 μM (CYP 2B6): 0.04 min⁻¹; v (10 uM), turnover rate at 10 μM (CYP 2B6): 0.07 min⁻¹
0.011	7857		0.323	0.601	0.1	0.13	0.137	0.31	0.00283	4048	CCCCCCCCOCOc1ccc2nc3ccc(=O)cc-3oc2c1 [OOMR, Octyloxymethylresorufin]	kcat (CYP 2C9; CYP 2C9): 0.0067 s⁻¹; kcat/Km (CYP 2C9; CYP 2C9): 2564 M⁻¹ s⁻¹
0.0198	4506		0.2274	0.981	0.179	1.043			0.0283	4106	CCCCCCCCOCOc1ccc2cc(C#N)c(=O)oc2c1 [OOMCC]	
0.0138	5123		0.1992	0.6241							O=C(OCc1ccccc1)c1c2oc3cc(OCc4ccccc4)ccc3nc-2ccc1=O [BRCBE]	
					0.03	0.23			0.0067	784	CCN(CC)Cc1cc(=O)oc2cc(OC)ccc12 [DMMC]	
					0.14	0.38	0.01	0.07	0.0083	2604	COCOc1ccc2cc(C#N)c(=O)oc2c1 [MOMCC]	conversion to the same fluorescent product vs the most closely structurally-related substrate (CYP 2C19; CYP 2C19): more efficient conversion; type of kinetics (CYP 2C19; CYP 2C19): Michaelis-; conversion to the same fluorescent product vs the most closely structurally-related substrate (CYP 2C9; CYP 2C9): more efficient conversion; kcat (CYP 2C9; CYP 2C9): 0.0033 s⁻¹; kcat/Km (CYP 2C9; CYP 2C9): 167 M⁻¹ s⁻¹; type of kinetics (CYP 2C9; CYP 2C9): Michaelis
